The structures appear in SMILES notation.

Assay in all cases: Transient transfection (transactivation) assay in CV-1 cells, GAL4-PPAR chimera, luciferase reporter
Common to all, as to type: cell-based
On the technique in general: Reporter assays use an easily measured gene product as a stand-in for the process of interest.

One assay concerns the target T1, PPAR gamma (Homo sapiens, UniProt P37231).
T1 construct: expressed in transfected cells; host or cells: CV-1 cells
T1 sequence (P37231 238-503 limits assumed): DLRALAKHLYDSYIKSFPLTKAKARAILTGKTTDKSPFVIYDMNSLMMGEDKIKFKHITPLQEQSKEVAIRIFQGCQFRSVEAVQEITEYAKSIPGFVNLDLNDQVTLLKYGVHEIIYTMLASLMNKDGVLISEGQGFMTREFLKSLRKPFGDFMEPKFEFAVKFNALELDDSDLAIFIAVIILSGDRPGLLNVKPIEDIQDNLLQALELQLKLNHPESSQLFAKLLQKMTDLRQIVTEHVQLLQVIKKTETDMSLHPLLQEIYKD

The target in another assay is T2, PPAR alpha (Homo sapiens, UniProt Q07869).
T2 construct: expressed in transfected cells; host or cells: CV-1 cells
T2 sequence (Q07869 239-466 limits assumed): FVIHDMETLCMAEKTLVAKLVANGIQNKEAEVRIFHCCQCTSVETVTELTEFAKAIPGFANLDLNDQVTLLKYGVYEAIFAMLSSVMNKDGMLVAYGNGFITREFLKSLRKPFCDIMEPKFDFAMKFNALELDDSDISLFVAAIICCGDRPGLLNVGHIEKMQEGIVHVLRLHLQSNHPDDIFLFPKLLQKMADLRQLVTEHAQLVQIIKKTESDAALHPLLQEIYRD
An excerpt:
Compounds may be screened for functional potency in transient transfection assays in CV-1 cells or other cell types for their ability to activate the PPAR subtypes (transactivation assay). A previously established chimeric receptor system was utilized to allow comparison of the relative transcriptional activity of the receptor subtypes on the same synthetic response element and to prevent endogenous receptor activation from complicating the interpretation of results. See, for example; Lehmann, J. M.; Moore, L. B.; Smith-Oliver, T. A; Wilkinson, W. O.; Willson, T. M.; Kliewer, S. A., An antidiabetic thiazolidinedione is a high affinity ligand for peroxisome proliferatur-activated receptor γ (PPARγ), J. Biol. Chem., 1995, 270, 12953-6. The ligand binding domains for murine and human PPAR-alpha, PPAR-gamma, and PPAR-delta are each fused to the yeast transcription factor GAL4 DNA binding domain. CV-1 cells were transiently transfected with expression vectors for the respective PPAR chimera along with a reporter construct containing four or five copies of the GAL4 DNA binding site driving expression of luciferase. After 8-16 h, the cells are replated into multi-well assay plates and the media is exchanged to phenol-red free DME medium supplemented with 5% delipidated calf serum. 4 hours after replating, cells were treated with either compounds or 1% DMSO for 20-24 hours. Luciferase activity was then assayed with Britelite (Perkin Elmer) following the manufacturer's protocol and measured with either the Perkin Elmer Viewlux or Molecular Devices Acquest Xsee, for example, Kliewer, S. A., et. al. Cell 1995, 83, 813-819). Rosiglitazone is used as a positive control in the hPPAR-γ assay. Wy-14643 and GW7647 is used as a positive control in the hPPAR-α assay. GW501516 is used as the positive control in the hPPAR-δ assay.
Compounds of Examples 1-233 were assayed to measure their biological activity with respect to their EC50 values and efficacy for modulating PPAR-alpha, PPAR-gamma, and PPAR-delta as set forth in Table 3.

The target of the next assay is T3, PPAR delta (Homo sapiens, UniProt Q03181).
T3 construct: expressed in transfected cells; host or cells: CV-1 cells
T3 sequence (Q03181 211-439 limits assumed): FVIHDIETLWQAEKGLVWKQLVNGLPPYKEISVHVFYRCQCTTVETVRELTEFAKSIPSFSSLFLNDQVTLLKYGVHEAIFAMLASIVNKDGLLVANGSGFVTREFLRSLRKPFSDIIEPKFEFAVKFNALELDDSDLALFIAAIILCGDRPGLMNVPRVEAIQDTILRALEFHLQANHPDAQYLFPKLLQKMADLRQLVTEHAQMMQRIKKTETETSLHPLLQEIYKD

Source text for PPAR delta: Compounds may be screened for functional potency in transient transfection assays in CV-1 cells or other cell types for their ability to activate the PPAR subtypes (transactivation assay). A previously established chimeric receptor system was utilized to allow comparison of the relative transcriptional activity of the receptor subtypes on the same synthetic response element and to prevent endogenous receptor activation from complicating the interpretation of results. […] The ligand binding domains for murine and human PPAR-alpha, PPAR-gamma, and PPAR-delta are each fused to the yeast transcription factor GAL4 DNA binding domain. CV-1 cells were transiently transfected with expression vectors for the respective PPAR chimera along with a reporter construct containing four or five copies of the GAL4 DNA binding site driving expression of luciferase. After 8-16 h, the cells are replated into multi-well assay plates and the media is exchanged to phenol-red free DME medium supplemented with 5% delipidated calf serum. 4 hours after replating, cells were treated with either compounds or 1% DMSO for 20-24 hours. Luciferase activity was then assayed with Britelite (Perkin Elmer) following the manufacturer's protocol and measured with either the Perkin Elmer Viewlux or Molecular Devices Acquest Xsee, for example, Kliewer, S. A., et. al. Cell 1995, 83, 813-819). Rosiglitazone is used as a positive control in the hPPAR-γ assay. Wy-14643 and GW7647 is used as a positive control in the hPPAR-α assay. GW501516 is used as the positive control in the hPPAR-δ assay.

The EC50 is the midpoint of the concentration-response curve. Lower therefore signals higher potency in that assay. With `Cc1ccc(S(=O)(=O)N2[C@H](C)CN(c3ccc(C(F)(F)F)cn3)C[C@@H]2C)cc1CC(=O)O` [Example 20, {5-[2,6-Dimethyl-4-(5-trifluoromethyl-pyridin-2-yl)-piperazine-1-sulfonyl]-2-methyl-phenyl}-acetic acid], the concentration for a half-maximal effect (EC50) on PPAR gamma was above 100 µM; on PPAR alpha, above 100 µM; on PPAR delta it was below 5 µM.
On to `Cc1cc(CC(=O)O)cc(S(=O)(=O)N2CCN(c3ncc(C(F)(F)F)cc3Cl)CC2)c1` [Example 22, {5-Methyl-3-[4-(3-chloro-5-trifluoromethyl-pyridin-2-yl)-piperazine-1-sulfonyl]-phenyl)-acetic acid], for which the 50% effective concentration (EC50) at PPAR gamma was below 5 µM; on PPAR alpha it was 5 to 100 µM; at PPAR delta it was below 5 µM.
Turning to `Cc1ccc(S(=O)(=O)N2CCN(c3ccc(C(F)(F)F)cn3)C(C)C2)cc1CC(=O)O` (stereo not drawn) [Example 23, [2-Methyl-5-[3-methyl-4-(5-trifluoromethyl-pyridin-2-yl)-piperazine-1-sulfonyl]-phenyl}-acetic acid], the half-maximal effective concentration (EC50) at PPAR gamma is below 5 µM; at PPAR alpha, 5 to 100 µM; at PPAR delta, below 5 µM.
Consider `Cc1ccc(S(=O)(=O)N2[C@H](C)CN(c3nc4ccccc4o3)C[C@@H]2C)cc1CC(=O)O` [Example 24, [5-(4-Benzooxazol-2-yl-2,6-dimethyl-piperazine-1-sulfonyl)-2-methyl-phenyl]-acetic acid], for which the EC50 on PPAR gamma was above 100 µM; on PPAR alpha it was above 100 µM; at PPAR delta, 5 to 100 µM.
With `Cc1ccc(S(=O)(=O)N2[C@H](C)CN(c3nc4ccccc4s3)C[C@@H]2C)cc1CC(=O)O` [Example 25, [5-(4-Benzothiazol-2-yl-2,6-dimethyl-piperazine-1-sulfonyl)-2-methyl-phenyl]-acetic acid], the EC50 on PPAR gamma was above 100 µM; at PPAR alpha it was above 100 µM; at PPAR delta, 5 to 100 µM.
As to `Cc1ccc(S(=O)(=O)N2CCCN(c3nc4ccccc4o3)CC2)cc1CC(=O)O` [Example 26, [5-(4-Benzooxazol-2-yl-[1,4]diazepane-1-sulfonyl)-2-methyl-phenyl]-acetic acid], the values for the EC50 at PPAR gamma, on PPAR alpha and at PPAR delta were above 100 µM, above 100 µM and 5 to 100 µM, respectively.
In the case of `Cc1ccc(S(=O)(=O)N2CCCN(c3nc4ccccc4s3)CC2)cc1CC(=O)O` [Example 27, [5-(4-Benzothiazol-2-yl-[1,4]diazepane-1-sulfonyl)-2-methyl-phenyl]-acetic acid], the EC50 on PPAR gamma was 5 to 100 µM; on PPAR alpha, above 100 µM; on PPAR delta, 5 to 100 µM.
Take `Cc1ccc(S(=O)(=O)N2CCN(c3ccc(C#N)cn3)CC2)cc1CC(=O)O` [Example 28, {5-[4-(5-Cyano-pyridin-2-yl)-piperazine-1-sulfonyl]-2-methyl-phenyl}-acetic acid]: the EC50 on PPAR gamma was above 100 µM; at PPAR alpha it was above 100 µM; on PPAR delta, below 5 µM.
For `COC(=O)[C@H]1CN(c2ccc(C(F)(F)F)cn2)CCN1S(=O)(=O)c1ccc(C)c(CC(=O)O)c1` [Example 29, (R)-1-(3-Carboxymethyl-4-methyl-benzenesulfonyl)-4-(5-trifluoromethyl-pyridin-2-yl)-piperazine-2-carboxylic acid methyl ester], the figures for the EC50 at PPAR gamma, on PPAR alpha and at PPAR delta were above 100 µM, above 100 µM and below 5 µM, respectively.
With `CCc1ccc(N2CCN(S(=O)(=O)c3ccc(C)c(CC(=O)O)c3)CC2)cc1` [Example 30, {5-[4-(4-Ethyl-phenyl)-piperazine-1-sulfonyl]-2-methyl-phenyl}-acetic acid], the EC50 was 5 to 100 µM at PPAR gamma, 5 to 100 µM on PPAR alpha and below 5 µM on PPAR delta.
Consider `Cc1ccc(S(=O)(=O)N2CCN(c3ccc(C(C)C)cc3)CC2)cc1CC(=O)O` [Example 31], for which the EC50 at PPAR gamma was 5 to 100 µM; at PPAR alpha, below 5 µM; at PPAR delta, below 5 µM.
For `Cc1ccc(S(=O)(=O)N2CCN(c3ccc(C(C)(C)C)cc3)CC2)cc1CC(=O)O` [Example 32, {5-[4-(4-tert-Butyl-phenyl)-piperazine-1-sulfonyl]-2-methyl-phenyl}-acetic acid], the EC50 at PPAR gamma was 5 to 100 µM; at PPAR alpha, below 5 µM; on PPAR delta, 5 to 100 µM.
On to `Cc1ccc(S(=O)(=O)N2CCN(c3ccc(C(F)(F)F)cc3F)CC2)cc1CC(=O)O` [Example 33], for which the EC50 on PPAR gamma, at PPAR alpha and at PPAR delta was below 5 µM in each case.
As for `Cc1ccc(S(=O)(=O)N2CCN(c3ccc(C(F)(F)F)c(F)c3)CC2)cc1CC(=O)O` [Example 34, {5-[4-(3-Fluoro-4-trifluoromethyl-phenyl)-piperazine-1-sulfonyl]-2-methyl-phenyl}-acetic acid], the “PPAR gamma EC50” value on PPAR gamma is “B/C”. The EC50 on PPAR alpha and at PPAR delta was below 5 µM in each case.
For the compound `Cc1ccc(S(=O)(=O)N2CCN(c3cc(C(F)(F)F)ccn3)CC2)cc1CC(=O)O` [Example 35, {2-Methyl-5-[4-(4-trifluoromethyl-pyridin-2-yl)-piperazine-1-sulfonyl]-phenyl}-acetic acid], the values for the EC50 at PPAR gamma, on PPAR alpha and at PPAR delta were 5 to 100 µM, 5 to 100 µM and below 5 µM, respectively.
Regarding `Cc1ccc(S(=O)(=O)N2CCN(c3cccc(C(F)(F)F)n3)CC2)cc1CC(=O)O` [Example 36, {2-Methyl-5-[4-(6-trifluoromethyl-pyridin-2-yl)-piperazine-1-sulfonyl]-phenyl}-acetic acid], the EC50 is below 5 µM at PPAR gamma, 5 to 100 µM at PPAR alpha and below 5 µM on PPAR delta.
On to `COC(=O)[C@@H]1CN(c2ccc(C(F)(F)F)cn2)CCN1S(=O)(=O)c1ccc(C)c(CC(=O)O)c1` [Example 37, (S)-1-(3-Carboxymethyl-4-methyl-benzenesulfonyl)-4-(S-trifluoromethyl-pyridin-2-yl)-piperazine-2-carboxylic acid methyl ester], for which the EC50 at PPAR gamma was above 100 µM; at PPAR alpha it was above 100 µM; at PPAR delta, below 5 µM.
In the case of `Cc1ccc(S(=O)(=O)N2CCN(c3ccc(C(F)(F)F)cn3)C(C)(C)C2)cc1CC(=O)O` [Example 38, {5-[3,3-Dimethyl-4-(5-trifluoromethyl-pyridin-2-yl)-piperazine-1-sulfonyl]-2-methyl-phenyl}-acetic acid], the EC50 on PPAR gamma is below 5 µM; at PPAR alpha it was above 100 µM; on PPAR delta it was below 5 µM.
In the case of `Cc1ccc(S(=O)(=O)N2CCN(c3ccc(C(F)(F)F)cn3)CC2(C)C)cc1CC(=O)O` [Example 39, {5-[2,2-Dimethyl-4-(5-trifluoromethyl-pyridin-2-yl)-piperazine-1-sulfonyl]-2-methyl-phenyl}-acetic acid], the EC50 at PPAR gamma was below 5 µM; on PPAR alpha, above 100 µM; at PPAR delta, below 5 µM.
Take `COC[C@@H]1CN(S(=O)(=O)c2ccc(C)c(CC(=O)O)c2)CCN1c1ccc(C(F)(F)F)cn1` [Example 40]: the EC50 on PPAR gamma was above 100 µM; at PPAR alpha, above 100 µM; at PPAR delta, 5 to 100 µM.
Take `COC(=O)[C@H]1CN(S(=O)(=O)c2ccc(C)c(CC(=O)O)c2)CCN1c1ccc(C(F)(F)F)cn1` [Example 41, (R)-4-(3-Carboxymethyl-4-methyl-benzenesulfonyl)- -(5-trifluoromethyl-pyridin-2-yl)-piperazine-2-carboxylic acid methyl ester]: the EC50 at PPAR gamma was 5 to 100 µM; on PPAR alpha it was above 100 µM; on PPAR delta, below 5 µM.

(Values after US20050234046A1 (Kalypsys, Inc., priority 2004, published 2005).)
